Measured values reported in ChEMBL document CHEMBL1201862, “PubChem BioAssay data set” (2004).
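The compound was tested at five concentrations on cells cultured in 96-well plates, with a 48-hour exposure period. Here, GI50 denotes the concentration required for 50% inhibition of growth.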 Activity calls are given as the source filed them. No stated cut-off is given here; in the data, active = GI50 up to about 1.1 µM and inactive = higher.

What was measured:
Assay in all cases: inhibition of tumour cell growth, NCI panel, 48 h
DLD-1 = test system: DLD-1
SNB-78 = test system: SNB-78
DU-145 = test system: DU-145
MDA-MB-435 = test system: MDA-MB-435
NCI/ADR-RES = test system: NCI/ADR-RES
HOP-18 = test system: HOP-18
BT-549 = test system: BT-549
RXF 631 = test system: RXF 631

Measured: GI50

O=c1ccc2nc3cc(Br)ccc3sc-2c1
inactive: DLD-1 82.8 µM | SNB-78 > 100 µM

CCCCC(=O)c1c(O)nc2sccn2c1=O
inactive: DU-145 > 10 µM | MDA-MB-435 > 10 µM | NCI/ADR-RES > 10 µM

c1ccc2c(c1)SP1Sc3ccccc3P21 (stereo unspecified)
inactive: DLD-1 > 92.5 µM | HOP-18 18.1 µM | NCI/ADR-RES > 100 µM | SNB-78 > 100 µM

CN(C)CCCNC(=O)N/N=C/c1ccccn1
inactive: DU-145 > 10 µM | NCI/ADR-RES > 10 µM

CC1(C)OC2CC(=O)OCC23C1CC(=O)C1(C)C3CCC2(C)C(c3ccoc3)OC(=O)C3OC321 (stereo unspecified)
inactive: DLD-1 > 125 µM | HOP-18 > 125 µM | NCI/ADR-RES > 125 µM | SNB-78 > 125 µM

COC1CCC(O)C(CO)O1 (stereo unspecified)
inactive: DLD-1 > 100 µM | SNB-78 > 100 µM

[O-][n+]1c2c([n+]([O-])c3ccccc31)-c1cccc3cccc-2c13
inactive: DU-145 > 100 µM | MDA-MB-435 > 100 µM | NCI/ADR-RES > 100 µM

NC(Cc1ccc(OCc2ccccc2)cc1)C(=O)NC(Cc1ccccc1)C(=O)Oc1c(Cl)c(Cl)c(Cl)c(Cl)c1Cl (stereo unspecified)
inactive: BT-549 17.5 µM | DU-145 12.8 µM | MDA-MB-435 18.3 µM | NCI/ADR-RES 17.9 µM

Nc1nc(Cl)nc2c1ncn2C1CCC(CO)O1 (stereo unspecified)
inactive: BT-549 > 100 µM | DU-145 > 100 µM | MDA-MB-435 > 100 µM | NCI/ADR-RES 90.6 µM

Nc1ccc2c(c1)C(=O)N(O)C2=O
inactive: DLD-1 > 100 µM | SNB-78 > 100 µM

COc1cc2c(cc1OC)CCN=C2
inactive: BT-549 > 100 µM | DU-145 > 100 µM | MDA-MB-435 > 100 µM | NCI/ADR-RES > 100 µM

Cc1ccc2c(c1)C(=O)N(N(C)C)CC(=O)N2
inactive: DLD-1 > 100 µM | HOP-18 > 100 µM | SNB-78 > 100 µM

O=C(O)C12CCCC(CCC1)C2
inactive: DLD-1 > 100 µM | RXF 631 > 100 µM | SNB-78 > 100 µM

CN(C)C(=O)OCOC(=O)N(C)C
inactive: DLD-1 > 100 µM | HOP-18 > 100 µM | NCI/ADR-RES > 100 µM | SNB-78 > 100 µM

CC(C)(C)[Si](C)(C)OCC1OC(n2cnc3c(N)ncnc32)CC1O (stereo unspecified)
inactive: BT-549 32.7 µM | DU-145 95.5 µM | MDA-MB-435 > 100 µM | NCI/ADR-RES 40.4 µM

Cc1cccc(C(C)C)c1NC(=O)CC1Sc2ccccc2NC1=O (stereo unspecified)
inactive: DLD-1 > 100 µM | HOP-18 > 100 µM | RXF 631 85.1 µM
